{
  "source": "patent US6355799B1",
  "about": "“Substituted benzene compounds, process for their preparation, and herbicidal and defoliant compositions containing them” (ISK Americas Incorporated, priority 1997, dated 2002)",
  "assay_type_in_all_cases": "in vivo",
  "key": {"[1]": {"tested_on": "redroot pigweed (Amaranthus retroflexus, AMARE)", "experiment": "Pre-emerge test, greenhouse herbicide activity screening", "conditions": "rating scale 0-100, 14 days after application", "how_it_was_run": "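Plants grown in 10 cm pots of sandy loam mix received acetone-dissolved compounds through a moving flat-fan nozzle. Doses ranged from 15 to 1000 g ai/ha. Pre-emerge pots were seeded one day earlier, post-emerge pots 8–21 days earlier. Fourteen days on, each pot was graded 0–100 for damage.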"}, "[2]": {"tested_on": "barnyardgrass (Echinochloa crus-galli, ECHCG)", "experiment": "Pre-emerge test, greenhouse herbicide activity screening", "conditions": "rating scale 0-100, 14 days after application", "how_it_was_run": "(§1)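 Applied at 15–1000 g ai/ha from acetone in 187 l/ha spray volume. Post-emergence applications included 0.25% v/v non-ionic surfactant and reached plants sown 8–21 days before. Pre-emergence applications were incorporated by surface watering. Efficacy or crop damage was rated on a 0–100 scale after 14 days.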"}, "[3]": {"tested_on": "common ragweed (Ambrosia artemisizfolia L., AMBEL)", "experiment": "Pre-emerge test, greenhouse herbicide activity screening", "conditions": "rating scale 0-100, 14 days after application", "how_it_was_run": "as §1"}, "[4]": {"tested_on": "green foxtail (Setaria viridis, SETVI)", "experiment": "Pre-emerge test, greenhouse herbicide activity screening", "conditions": "rating scale 0-100, 14 days after application", "how_it_was_run": "as §1"}, "[5]": {"tested_on": "ivyleaf morningglory (Ipomoea hederacea, IPOHE)", "experiment": "Pre-emerge test, greenhouse herbicide activity screening", "conditions": "rating scale 0-100, 14 days after application", "how_it_was_run": "as §1"}, "[6]": {"tested_on": "johnsongrass (Sorghum halepense, SORHA)", "experiment": "Pre-emerge test, greenhouse herbicide activity screening", "conditions": "rating scale 0-100, 14 days after application", "how_it_was_run": "as §1"}, "[7]": {"tested_on": "lambsquarters (Chenopodium album, CHEAL)", "experiment": "Pre-emerge test, greenhouse herbicide activity screening", "conditions": "rating scale 0-100, 14 days after application", "how_it_was_run": "as §1"}, "[8]": {"tested_on": "large crabgrass (Digitaria sanguinalis, DIGSA)", "experiment": "Pre-emerge test, greenhouse herbicide activity screening", "conditions": "rating scale 0-100, 14 days after application", "how_it_was_run": "as §1"}, "[9]": {"tested_on": "sicklepod (Cassia obtusifolia, CASOB)", "experiment": "Pre-emerge test, greenhouse herbicide activity screening", "conditions": "rating scale 0-100, 14 days after application", "how_it_was_run": "as §1"}, "[10]": {"tested_on": "velvetleaf (Abutilon theophrasti, ABUTH)", "experiment": "Pre-emerge test, greenhouse herbicide activity screening", "conditions": "rating scale 0-100, 14 days after application", "how_it_was_run": "as §1"}, "[11]": {"tested_on": "field corn (Zea mays L., var. Dekalb 535, CORN)", "experiment": "Pre-emerge test, crop safety", "conditions": "rating scale 0-100, 14 days after application", "how_it_was_run": "(§2)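 Compounds in acetone were track-sprayed at 15-1000 g ai/ha (187 l/ha) on sandy loam pots: pre-emerge one day after seeding, post-emerge at 2-3 leaf stage with 0.25% v/v non-ionic surfactant. Phytotoxicity was rated 14 days later on a 0 (no damage) to 100 (complete death) scale.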"}, "[12]": {"tested_on": "upland rice (Oryza sp., var. Tebonnet, RICE)", "experiment": "Pre-emerge test, crop safety", "conditions": "rating scale 0-100, 14 days after application", "how_it_was_run": "as §2"}, "[13]": {"tested_on": "barnyardgrass (Echinochloa crus-galli, ECHCG)", "experiment": "Post-emerge test, greenhouse herbicide activity screening", "conditions": "rating scale 0-100 (0 no damage, 100 complete death), 14 days after application", "how_it_was_run": "(§3)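 Sandy loam pots; pre-emerge: sown 1 d pre-spray, surface-watered after, then bottom-watered. Post-emerge: sown 8–21 d before, 2–3 leaf stage, + 0.25% v/v NIS, bottom-watered. Acetone, 187 l/ha track spray, 15–1000 g ai/ha. 0–100 injury score, day 14.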"}, "[14]": {"tested_on": "green foxtail (Setaria viridis, SETVI)", "experiment": "Post-emerge test, greenhouse herbicide activity screening", "conditions": "rating scale 0-100 (0 no damage, 100 complete death), 14 days after application", "how_it_was_run": "as §3"}, "[15]": {"tested_on": "ivyleaf morningglory (Ipomoea hederacea, IPOHE)", "experiment": "Post-emerge test, greenhouse herbicide activity screening", "conditions": "rating scale 0-100 (0 no damage, 100 complete death), 14 days after application", "how_it_was_run": "as §3"}, "[16]": {"tested_on": "johnsongrass (Sorghum halepense, SORHA)", "experiment": "Post-emerge test, greenhouse herbicide activity screening", "conditions": "rating scale 0-100 (0 no damage, 100 complete death), 14 days after application", "how_it_was_run": "as §3"}, "[17]": {"tested_on": "lambsquarters (Chenopodium album, CHEAL)", "experiment": "Post-emerge test, greenhouse herbicide activity screening", "conditions": "rating scale 0-100 (0 no damage, 100 complete death), 14 days after application", "how_it_was_run": "as §3"}, "[18]": {"tested_on": "large crabgrass (Digitaria sanguinalis, DIGSA)", "experiment": "Post-emerge test, greenhouse herbicide activity screening", "conditions": "rating scale 0-100 (0 no damage, 100 complete death), 14 days after application", "how_it_was_run": "as §3"}, "[19]": {"tested_on": "redroot pigweed (Amaranthus retroflexus, AMARE)", "experiment": "Post-emerge test, greenhouse herbicide activity screening", "conditions": "rating scale 0-100 (0 no damage, 100 complete death), 14 days after application", "how_it_was_run": "as §3"}, "[20]": {"tested_on": "sicklepod (Cassia obtusifolia, CASOB)", "experiment": "Post-emerge test, greenhouse herbicide activity screening", "conditions": "rating scale 0-100 (0 no damage, 100 complete death), 14 days after application", "how_it_was_run": "as §3"}, "[21]": {"tested_on": "velvetleaf (Abutilon theophrasti, ABUTH)", "experiment": "Post-emerge test, greenhouse herbicide activity screening", "conditions": "rating scale 0-100 (0 no damage, 100 complete death), 14 days after application", "how_it_was_run": "as §3"}, "[22]": {"tested_on": "field corn (Zea mays L., var. Dekalb 535, CORN)", "experiment": "Post-emerge test, crop safety", "conditions": "rating scale 0-100 (0 no damage, 100 complete death), 14 days after application", "how_it_was_run": "as §1"}, "[23]": {"tested_on": "upland rice (Oryza sp., var. Tebonnet, RICE)", "experiment": "Post-emerge test, crop safety", "conditions": "rating scale 0-100 (0 no damage, 100 complete death), 14 days after application", "how_it_was_run": "as §1"}},
  "data": [
    {"smiles": "C=CCOC(=O)C(C)(Cl)Cc1c(OC)c(Cl)cc(F)c1-n1c(=O)cc(C(F)(F)F)n(C)c1=O", "note": "(stereo not shown) [14-43]", "values": [
      {"measurement": "Pre-emerge herbicidal activity, phytotoxicity rating AMARE", "setting": "[1]; 63 g ai/ha", "result": 100},
      {"measurement": "Pre-emerge herbicidal activity, phytotoxicity rating AMARE", "setting": "[1]; 250 g ai/ha", "result": 100},
      {"measurement": "Pre-emerge herbicidal activity, phytotoxicity rating ECHCG", "setting": "[2]; 63 g ai/ha", "result": 0},
      {"measurement": "Pre-emerge herbicidal activity, phytotoxicity rating ECHCG", "setting": "[2]; 250 g ai/ha", "result": 80},
      {"measurement": "Pre-emerge herbicidal activity, phytotoxicity rating AMBEL", "setting": "[3]; 63 g ai/ha", "result": 0},
      {"measurement": "Pre-emerge herbicidal activity, phytotoxicity rating AMBEL", "setting": "[3]; 250 g ai/ha", "result": 100},
      {"measurement": "Pre-emerge herbicidal activity, phytotoxicity rating SETVI", "setting": "[4]; 63 g ai/ha", "result": 30},
      {"measurement": "Pre-emerge herbicidal activity, phytotoxicity rating SETVI", "setting": "[4]; 250 g ai/ha", "result": 95},
      {"measurement": "Pre-emerge herbicidal activity, phytotoxicity rating IPOHE", "setting": "[5]; 63 g ai/ha", "result": 0},
      {"measurement": "Pre-emerge herbicidal activity, phytotoxicity rating IPOHE", "setting": "[5]; 250 g ai/ha", "result": 0},
      {"measurement": "Pre-emerge herbicidal activity, phytotoxicity rating SORHA", "setting": "[6]; 63 g ai/ha", "result": 20},
      {"measurement": "Pre-emerge herbicidal activity, phytotoxicity rating SORHA", "setting": "[6]; 250 g ai/ha", "result": 30},
      {"measurement": "Pre-emerge herbicidal activity, phytotoxicity rating CHEAL", "setting": "[7]; 63 g ai/ha", "result": 100},
      {"measurement": "Pre-emerge herbicidal activity, phytotoxicity rating CHEAL", "setting": "[7]; 250 g ai/ha", "result": 100},
      {"measurement": "Pre-emerge herbicidal activity, phytotoxicity rating DIGSA", "setting": "[8]; 63 g ai/ha", "result": 80},
      {"measurement": "Pre-emerge herbicidal activity, phytotoxicity rating DIGSA", "setting": "[8]; 250 g ai/ha", "result": 100},
      {"measurement": "Pre-emerge herbicidal activity, phytotoxicity rating CASOB", "setting": "[9]; 63 g ai/ha", "result": 0},
      {"measurement": "Pre-emerge herbicidal activity, phytotoxicity rating CASOB", "setting": "[9]; 250 g ai/ha", "result": 0},
      {"measurement": "Pre-emerge herbicidal activity, phytotoxicity rating ABUTH", "setting": "[10]; 63 g ai/ha", "result": 90},
      {"measurement": "Pre-emerge herbicidal activity, phytotoxicity rating ABUTH", "setting": "[10]; 250 g ai/ha", "result": 100},
      {"measurement": "Pre-emerge phytotoxicity rating, crop damage CORN", "setting": "[11]; 63 g ai/ha", "result": 0},
      {"measurement": "Pre-emerge phytotoxicity rating, crop damage CORN", "setting": "[11]; 250 g ai/ha", "result": 20},
      {"measurement": "Pre-emerge phytotoxicity rating, crop damage RICE", "setting": "[12]; 63 g ai/ha", "result": 10},
      {"measurement": "Pre-emerge phytotoxicity rating, crop damage RICE", "setting": "[12]; 250 g ai/ha", "result": 40},
      {"measurement": "Post-emerge Herbicidal Activity, phytotoxicity rating ECHCG", "setting": "[13]; Rate 63 g ai/ha", "result": 100},
      {"measurement": "Post-emerge Herbicidal Activity, phytotoxicity rating ECHCG", "setting": "[13]; Rate 250 g ai/ha", "result": 100},
      {"measurement": "Post-emerge Herbicidal Activity, phytotoxicity rating SETVI", "setting": "[14]; Rate 63 g ai/ha", "result": 90},
      {"measurement": "Post-emerge Herbicidal Activity, phytotoxicity rating SETVI", "setting": "[14]; Rate 250 g ai/ha", "result": 100},
      {"measurement": "Post-emerge Herbicidal Activity, phytotoxicity rating IPOHE", "setting": "[15]; Rate 63 g ai/ha", "result": 95},
      {"measurement": "Post-emerge Herbicidal Activity, phytotoxicity rating IPOHE", "setting": "[15]; Rate 250 g ai/ha", "result": 100},
      {"measurement": "Post-emerge Herbicidal Activity, phytotoxicity rating SORHA", "setting": "[16]; Rate 63 g ai/ha", "result": 80},
      {"measurement": "Post-emerge Herbicidal Activity, phytotoxicity rating SORHA", "setting": "[16]; Rate 250 g ai/ha", "result": 95},
      {"measurement": "Post-emerge Herbicidal Activity, phytotoxicity rating CHEAL", "setting": "[17]; Rate 63 g ai/ha", "result": 100},
      {"measurement": "Post-emerge Herbicidal Activity, phytotoxicity rating CHEAL", "setting": "[17]; Rate 250 g ai/ha", "result": 100},
      {"measurement": "Post-emerge Herbicidal Activity, phytotoxicity rating DIGSA", "setting": "[18]; Rate 63 g ai/ha", "result": 80},
      {"measurement": "Post-emerge Herbicidal Activity, phytotoxicity rating DIGSA", "setting": "[18]; Rate 250 g ai/ha", "result": 100},
      {"measurement": "Post-emerge Herbicidal Activity, phytotoxicity rating AMARE", "setting": "[19]; Rate 63 g ai/ha", "result": 100},
      {"measurement": "Post-emerge Herbicidal Activity, phytotoxicity rating AMARE", "setting": "[19]; Rate 250 g ai/ha", "result": 100},
      {"measurement": "Post-emerge Herbicidal Activity, phytotoxicity rating CASOB", "setting": "[20]; Rate 63 g ai/ha", "result": 40},
      {"measurement": "Post-emerge Herbicidal Activity, phytotoxicity rating CASOB", "setting": "[20]; Rate 250 g ai/ha", "result": 90},
      {"measurement": "Post-emerge Herbicidal Activity, phytotoxicity rating ABUTH", "setting": "[21]; Rate 63 g ai/ha", "result": 100},
      {"measurement": "Post-emerge Herbicidal Activity, phytotoxicity rating ABUTH", "setting": "[21]; Rate 250 g ai/ha", "result": 100},
      {"measurement": "Post-emerge phytotoxicity rating CORN (crop damage)", "setting": "[22]; Rate 63 g ai/ha", "result": 95},
      {"measurement": "Post-emerge phytotoxicity rating CORN (crop damage)", "setting": "[22]; Rate 250 g ai/ha", "result": 100},
      {"measurement": "Post-emerge phytotoxicity rating RICE (crop damage)", "setting": "[23]; Rate 63 g ai/ha", "result": 95},
      {"measurement": "Post-emerge phytotoxicity rating RICE (crop damage)", "setting": "[23]; Rate 250 g ai/ha", "result": 100}
    ]}
  ]
}
